Experimental data reported in patent US20040122044A1, “Utilization of substituted imidazo [1,2-A]-pyridin-3-yl-amide and imidazo [1,2-A]-pyridin-3-yl-amine compounds in pharmaceutical formulations” (priority 2001, published 2004).

Biological target: T1, NO synthase (Rattus norvegicus, UniProt P29476)
T1 construct: the tissue was broken down with a Polytron homogenizer for 1 min at 6,000 rpm; from tissue; host or cells: rat cerebellum, 20,000 g supernatant of homogenate
Test: HTS NO synthase assay
Type: biochemical
Settings: enzyme preparation from rat cerebelli, [3H]arginine substrate
Experimental: This assay allows the determination of the percentage inhibition of NO synthase by a compound of formula I according to the invention by measurement of the NO synthase activity in the presence of the compound. In this procedure, NO synthase is mixed together with radioactively labelled arginine and the particular compound of formula I under suitable conditions. After interruption of the NO formation reaction at a given point in time, the amount of unreacted arginine is determined directly or indirectly. […]
In this HTS NO synthase assay, radioactive arginine is used as the substrate. […] With the aid of this procedure, the arginine substrate which remains is bonded to the cation exchanger, while the radioactive citrulline formed enzymatically is washed out quantitatively. After drying of the filter MTP and addition of scintillation liquid, the bound arginine can be counted on a scintillation counter. An NO synthase reaction which has not been inhibited is reflected in a low radioactivity. […] That is to say a high radioactivity is found on the filter. […]
The plate was then dried for 1 hour at 60° C. in a drying cabinet. […] After a waiting time of 1 hour, the plate was measured on a β-counter.

inhibition at 10 µM: 89%
SMILES: Cc1ccn2c(N)c(-c3ccsc3)nc2c1 [Example 1, 7-Methyl-2-thiophen-3-yl-imidazo[1,2-a]pyridin-3-ylamine]
